Test results: patent publication US20230183193A1, “4-DIFLUOROMETHYL BENZOYL AMIDES WITH HERBICIDAL ACTION” (BAYER CROPSCIENCE AKTIENGESELLSCHAFT, priority 2017, published 2023)

What was measured:
[1] = tested on: Stellaria media; test: Pre-emergence herbicidal action, STEME; assay type: in vivo; conditions: dosage 320 g/ha, scored visually after 3 weeks vs untreated controls
In short: (§1)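 Weed seeds were laid out in sandy loam and covered with soil, then the soil surface was treated with an aqueous suspension or emulsion of the formulated compound containing 0.2% wetting agent. Pots stayed in the greenhouse for 3 weeks before damage was rated visually against untreated plants.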

[2] = tested on: ECHCG; test: Post-emergence herbicidal action, ECHCG; assay type: in vivo; conditions: 80 g/ha, Table C
In short: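 Weed and crop plants grown in sandy loam in the greenhouse, treated at the one-leaf stage 2–3 weeks after sowing. Damage scored visually after about 3 weeks vs untreated controls (0% = control, 100% = dead).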

[3] = tested on: ECHCG; test: Pre-emergence herbicidal action, ECHCG; assay type: in vivo, Echinochloa crus-galli
[4] = tested on: Avena fatua; test: Post-emergence herbicidal action, AVEFA; assay type: in vivo; conditions: for herbicidal activity AVEFA: Table C
In short: (§2)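 Visual percent activity relative to untreated controls, assessed about 3 weeks after foliar treatment, where 0% equals control growth and 100% equals death. Compounds, as wettable powders or emulsion concentrates, are sprayed onto one-leaf-stage plants in sandy loam.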

[5] = tested on: Amaranthus retroflexus; test: Pre-emergence herbicidal action, AMARE; assay type: in vivo; conditions: dosage 320 g/ha, scored visually after 3 weeks vs untreated controls
In short: as §1

[6] = tested on: Viola tricolor; test: Pre-emergence herbicidal action, VIOTR; assay type: in vivo; conditions: for Herbicidal efficacy against VIOTR: Table K; for herbicidal activity VIOTR: scored visually after 3 weeks vs untreated controls
In short: as §1

[7] = tested on: Cyperus serotinus; test: Pre-emergence herbicidal action, CYPES; assay type: in vivo; conditions: for herbicidal activity CYPES: dosage 320 g/ha, scored visually after 3 weeks vs untreated controls
In short: as §1

[8] = tested on: Amaranthus retroflexus; test: Post-emergence herbicidal action, AMARE; assay type: in vivo; conditions: 80 g/ha, Table D
In short: as §2

[9] = tested on: Alopecurus myosuroides; test: Post-emergence herbicidal action, ALOMY; assay type: in vivo; conditions: for herbicidal activity ALOMY: Table C
In short: as §2

[10] = tested on: Pharbitis purpureum; test: Post-emergence herbicidal action, PHBPU; assay type: in vivo; conditions: 80 g/ha, Table D
In short: as §2

[11] = tested on: Abutilon theophrasti; test: Pre-emergence herbicidal action, ABUTH; assay type: in vivo; conditions: for Herbicidal efficacy against ABUTH: Table K; for herbicidal activity ABUTH: scored visually after 3 weeks vs untreated controls
In short: as §1

[12] = tested on: Viola tricolor; test: Post-emergence herbicidal action, VIOTR; assay type: in vivo; conditions: for herbicidal activity VIOTR: Table D
In short: as §2

[13] = tested on: Stellaria media; test: Post-emergence herbicidal action, STEME; assay type: in vivo; conditions: for Herbicidal activity STEME: Table D
In short: as §2

[14] = tested on: Avena fatua; test: Pre-emergence herbicidal action, AVEFA; assay type: in vivo; conditions: for herbicidal activity AVEFA: dosage 320 g/ha, scored visually after 3 weeks vs untreated controls
In short: as §1

[15] = tested on: Setaria viridis; test: Post-emergence herbicidal action, SETVI; assay type: in vivo; conditions: for herbicidal activity SETVI: Table C
In short: as §2

[16] = tested on: Polygonum convolvulus; test: Pre-emergence herbicidal action, POLCO; assay type: in vivo; conditions: Table K
Excerpt: 1. Pre-Emergence Herbicidal Action Against Harmful Plants Seeds of monocotyledonous and dicotyledonous weed plants and crop plants are laid out in sandy loam soil in wood-fiber pots and covered with soil. The compounds of the invention, formulated in the form of wettable powders (WP) or as emulsion concentrates (EC), are then applied to the surface of the covering soil in the form of an aqueous suspension or emulsion at a water application rate equating to […], with addition of 0.2% wetting agent. After the treatment, the pots are placed in a greenhouse and kept under good growth conditions for the trial plants. The damage to the test plants is scored visually after a test period of 3 weeks by comparison with untreated controls (herbicidal activity in percent (%): 100% activity=the plants have died, 0% activity=like control plants).
For comparison, the herbicidal activity of numerous compounds according to the invention was tested with the structurally closest compounds known from the documents WO 2011/035874, WO 2012/028579 and WO 2012/126932, by the pre- and post-emergence method.

[17] = tested on: Abutilon theophrasti; test: Post-emergence herbicidal action, ABUTH; assay type: in vivo; conditions: 80 g/ha, Table D
In short: as §2

[18] = tested on: Matricaria inodora; test: Pre-emergence herbicidal action, MATIN; assay type: in vivo; conditions: for Herbicidal efficacy against MATIN: Table K; for herbicidal activity MATIN: scored visually after 3 weeks vs untreated controls
In short: as §1

[19] = tested on: Alopecurus myosuroides; test: Pre-emergence herbicidal action, ALOMY; assay type: in vivo; conditions: for herbicidal activity ALOMY: dosage 320 g/ha, scored visually after 3 weeks vs untreated controls
In short: as §1

[20] = tested on: Setaria viridis; test: Pre-emergence herbicidal action, SETVI; assay type: in vivo; conditions: for herbicidal activity SETVI: dosage 320 g/ha, scored visually after 3 weeks vs untreated controls
In short: as §1

Compound: Cn1nnnc1NC(=O)c1ccc(C(F)F)c([S+](C)[O-])c1Cl (stereo not drawn) [Example 1-50]
- Herbicidal activity STEME [1]: 90%
- Herbicidal activity ECHCG [2]: 100%
- Herbicidal efficacy against ECHCG ([3]; 20 g/ha): 90
- Herbicidal efficacy against ECHCG ([3]; 80 g/ha): 100
- Herbicidal efficacy against ECHCG ([3]; 320 g/ha): 100
- herbicidal activity AVEFA ([4]; 80 g/ha): 100%
- herbicidal activity AMARE [5]: 100%
- Herbicidal efficacy against VIOTR ([6]; dosage 20 g/ha): 100
- Herbicidal efficacy against VIOTR ([6]; dosage 80 g/ha): 100
- Herbicidal efficacy against VIOTR ([6]; dosage 320 g/ha): 100
- herbicidal activity VIOTR ([6]; dosage 320 g/ha): 100%
- Herbicidal efficacy against CYPES ([7]; 20 g/ha): 70
- Herbicidal efficacy against CYPES ([7]; 80 g/ha): 100
- Herbicidal efficacy against CYPES ([7]; 320 g/ha): 100
- herbicidal activity CYPES [7]: 100%
- herbicidal activity AMARE [8]: 100%
- herbicidal activity ALOMY ([9]; 80 g/ha): 100%
- Herbicidal activity PHBPU [10]: 100%
- Herbicidal efficacy against ABUTH ([11]; dosage 20 g/ha): 100
- Herbicidal efficacy against ABUTH ([11]; dosage 80 g/ha): 100
- Herbicidal efficacy against ABUTH ([11]; dosage 320 g/ha): 100
- herbicidal activity ABUTH ([11]; dosage 320 g/ha): 100%
- herbicidal activity VIOTR ([12]; 80 g/ha): 100%
- Herbicidal activity STEME ([13]; 80 g/ha): 100%
- Herbicidal efficacy against AVEFA ([14]; 80 g/ha): 90
- Herbicidal efficacy against AVEFA ([14]; 320 g/ha): 100
- herbicidal activity AVEFA [14]: 100%
- herbicidal activity SETVI ([15]; 80 g/ha): 100%
- Herbicidal efficacy against POLCO ([16]; dosage 80 g/ha): 80
- Herbicidal efficacy against POLCO ([16]; dosage 320 g/ha): 90
- herbicidal activity ABUTH [17]: 100%
- Herbicidal efficacy against MATIN ([18]; dosage 20 g/ha): 90
- Herbicidal efficacy against MATIN ([18]; dosage 80 g/ha): 100
- Herbicidal efficacy against MATIN ([18]; dosage 320 g/ha): 100
- herbicidal activity MATIN ([18]; dosage 320 g/ha): 100%
- Herbicidal efficacy against ALOMY ([19]; 20 g/ha): 90
- Herbicidal efficacy against ALOMY ([19]; 80 g/ha): 100
- Herbicidal efficacy against ALOMY ([19]; 320 g/ha): 100
- herbicidal activity ALOMY [19]: 100%
- Herbicidal efficacy against SETVI ([20]; 20 g/ha): 100
- Herbicidal efficacy against SETVI ([20]; 80 g/ha): 100
- Herbicidal efficacy against SETVI ([20]; 320 g/ha): 100
- herbicidal activity SETVI [20]: 100%

Compound: CSc1c(C(F)F)ccc(C(=O)Nc2nnnn2C)c1C [Example 1-1]
- Herbicidal activity STEME [1]: 100%
- Herbicidal activity ECHCG [2]: 100%
- Herbicidal efficacy against ECHCG ([3]; 20 g/ha): 80
- Herbicidal efficacy against ECHCG ([3]; 80 g/ha): 100
- Herbicidal efficacy against AVEFA ([4]; 5 g/ha): 40
- Herbicidal efficacy against AVEFA ([4]; 20 g/ha): 90
- Herbicidal efficacy against AVEFA ([4]; 80 g/ha): 100
- herbicidal activity AVEFA ([4]; 80 g/ha): 100%
- herbicidal activity AMARE [5]: 100%
- Herbicidal efficacy against VIOTR ([6]; dosage 20 g/ha): 100
- Herbicidal efficacy against VIOTR ([6]; dosage 80 g/ha): 100
- herbicidal activity VIOTR ([6]; dosage 320 g/ha): 100%
- Herbicidal efficacy against CYPES ([7]; 20 g/ha): 30
- Herbicidal efficacy against CYPES ([7]; 80 g/ha): 70
- herbicidal activity CYPES [7]: 80%
- herbicidal activity AMARE [8]: 100%
- Herbicidal efficacy against ALOMY ([9]; 5 g/ha): 60
- Herbicidal efficacy against ALOMY ([9]; 20 g/ha): 90
- Herbicidal efficacy against ALOMY ([9]; 80 g/ha): 90
- herbicidal activity ALOMY ([9]; 80 g/ha): 90%
- Herbicidal activity PHBPU [10]: 90%
- Herbicidal efficacy against ABUTH ([11]; dosage 20 g/ha): 90
- Herbicidal efficacy against ABUTH ([11]; dosage 80 g/ha): 100
- herbicidal activity ABUTH ([11]; dosage 320 g/ha): 100%
- Herbicidal efficacy against VIOTR ([12]; 5 g/ha): 100
- Herbicidal efficacy against VIOTR ([12]; 20 g/ha): 100
- Herbicidal efficacy against VIOTR ([12]; 80 g/ha): 100
- herbicidal activity VIOTR ([12]; 80 g/ha): 100%
- Herbicidal efficacy against STEME ([13]; 5 g/ha): 100
- Herbicidal efficacy against STEME ([13]; 20 g/ha): 100
- Herbicidal efficacy against STEME ([13]; 80 g/ha): 100
- Herbicidal activity STEME ([13]; 80 g/ha): 100%
- Herbicidal efficacy against AVEFA ([14]; 80 g/ha): 90
- herbicidal activity AVEFA [14]: 100%
- Herbicidal efficacy against SETVI ([15]; 5 g/ha): 100
- Herbicidal efficacy against SETVI ([15]; 20 g/ha): 100
- Herbicidal efficacy against SETVI ([15]; 80 g/ha): 100
- herbicidal activity SETVI ([15]; 80 g/ha): 100%
- Herbicidal efficacy against POLCO ([16]; dosage 20 g/ha): 60
- Herbicidal efficacy against POLCO ([16]; dosage 80 g/ha): 70
- herbicidal activity ABUTH [17]: 100%
- Herbicidal efficacy against MATIN ([18]; dosage 20 g/ha): 70
- Herbicidal efficacy against MATIN ([18]; dosage 80 g/ha): 90
- herbicidal activity MATIN ([18]; dosage 320 g/ha): 100%
- Herbicidal efficacy against ALOMY ([19]; 20 g/ha): 90
- Herbicidal efficacy against ALOMY ([19]; 80 g/ha): 90
- herbicidal activity ALOMY [19]: 100%
- Herbicidal efficacy against SETVI ([20]; 20 g/ha): 70
- Herbicidal efficacy against SETVI ([20]; 80 g/ha): 100
- herbicidal activity SETVI [20]: 100%
